Read-outs that look alike come from different tables or passages of the source. Where a SMILES comes first, the peptide text is derived from it. Bridges are numbered along the chain shown (N, C = ends). Where no end group is shown, it is not given here. [ ]: non-standard residue; d: D form.
How the values were obtained:
mMC3R = mMC3R (Mus musculus, UniProt P33033); type: cell-based
mMC4R [1] = target: T1, mMC4R (Mus musculus, UniProt P56450); type: cell-based
mMC4R [2] = target: T1, mMC4R; conditions: cited from earlier work
mMC4R (Mus musculus) = mMC4R (Mus musculus) (UniProt P56450); experiment: Schild analysis; conditions: cited from earlier work

Chain of mMC3R (P33033 whole entry): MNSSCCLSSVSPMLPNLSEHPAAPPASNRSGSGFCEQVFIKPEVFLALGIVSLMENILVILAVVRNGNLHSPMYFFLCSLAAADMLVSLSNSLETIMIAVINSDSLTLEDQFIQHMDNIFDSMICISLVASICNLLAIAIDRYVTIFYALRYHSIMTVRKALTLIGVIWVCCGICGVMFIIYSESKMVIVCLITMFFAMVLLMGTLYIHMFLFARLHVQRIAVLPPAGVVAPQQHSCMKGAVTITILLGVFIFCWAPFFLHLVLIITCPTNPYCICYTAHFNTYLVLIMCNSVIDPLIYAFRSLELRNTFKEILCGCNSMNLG
T1 sequence (P56450 whole entry): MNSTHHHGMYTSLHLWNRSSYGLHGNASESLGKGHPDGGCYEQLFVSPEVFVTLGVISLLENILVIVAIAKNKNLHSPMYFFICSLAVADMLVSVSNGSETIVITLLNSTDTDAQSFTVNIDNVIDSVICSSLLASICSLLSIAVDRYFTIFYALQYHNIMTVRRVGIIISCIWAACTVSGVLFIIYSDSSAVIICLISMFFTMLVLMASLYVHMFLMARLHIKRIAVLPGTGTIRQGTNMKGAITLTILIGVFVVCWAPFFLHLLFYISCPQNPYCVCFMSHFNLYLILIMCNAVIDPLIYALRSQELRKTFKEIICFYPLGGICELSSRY

C[C@@H]1NC(=O)[C@H](CC(N)=O)NC(=O)[C@H](Cc2ccccc2)NC(=O)[C@@H]2Cc3ccccc3CN2C(=O)[C@H](CCCNC(=N)N)NC(=O)[C@@H]2CCCN2C(=O)[C@H]2CCCN2C(=O)[C@H](Cc2ccccc2)NC1=O [Peptide 8, c[Pro-Arg-Tic-Phe-Asn-Ala-Phe-DPro]]
no activity at the mMC3R up to (concentration) (mMC3R): > 100 µM
no activity at the mMC4R up to (concentration) (mMC4R [1]): > 100 µM

C[C@@H]1NC(=O)[C@H](CC(N)=O)NC(=O)[C@H](Cc2ccccc2)NC(=O)[C@H](CCc2ccccc2)NC(=O)[C@H](CCCNC(=N)N)NC(=O)[C@@H]2CCCN2C(=O)[C@H]2CCCN2C(=O)[C@H](Cc2ccccc2)NC1=O [Peptide 10, c[Pro-Arg-hPhe-Phe-Asn-Ala-Phe-DPro]]
fold decreased antagonist potency at the mMC4R compared to 6 (mMC4R [1]): 5 fold

C[C@@H]1NC(=O)[C@H](CC(N)=O)NC(=O)[C@H](Cc2ccccc2)NC(=O)[C@H](Cc2ccc3ccccc3c2)NC(=O)[C@H](CCCNC(=N)N)NC(=O)[C@@H]2CCCN2C(=O)[C@H]2CCCN2C(=O)[C@H](Cc2ccccc2)NC1=O [Peptide 13, c [Pro-Arg-Nal(2′)-Phe-Asn-Ala-Phe-DPro]]
fold decreased antagonist potency at the mMC4R compared to 6 (mMC4R [1]): 5 fold

C[C@@H]1NC(=O)[C@H](CC(N)=O)NC(=O)[C@@H]2Cc3ccccc3CN2C(=O)[C@H](Cc2ccccc2)NC(=O)[C@H](CCCNC(=N)N)NC(=O)[C@@H]2CCCN2C(=O)[C@H]2CCCN2C(=O)[C@H](Cc2ccccc2)NC1=O [Peptide 15, c[Pro-Arg-Phe-Tic-Asn-Ala-Phe-DPro]]
no activity at the mMC3R up to (concentration) (mMC3R): > 100 µM
no activity at the mMC4R up to (concentration) (mMC4R [1]): > 100 µM

C[C@@H]1NC(=O)[C@H](CC(N)=O)NC(=O)[C@H](Cc2cccc3ccccc23)NC(=O)[C@H](Cc2ccccc2)NC(=O)[C@H](CCCNC(=N)N)NC(=O)[C@@H]2CCCN2C(=O)[C@H]2CCCN2C(=O)[C@H](Cc2ccccc2)NC1=O [Peptide 19, c[Pro-Arg-Phe-Nal(1′)-Asn-Ala-Phe-DPro]]
fold decreased antagonist potency at the mMC3R compared to 6 (mMC3R; compared to 6): 6 fold

C[C@@H]1NC(=O)[C@H](CC(N)=O)NC(=O)[C@H](Cc2ccc3ccccc3c2)NC(=O)[C@H](Cc2ccccc2)NC(=O)[C@H](CCCNC(=N)N)NC(=O)[C@@H]2CCCN2C(=O)[C@H]2CCCN2C(=O)[C@H](Cc2ccccc2)NC1=O [Peptide 20, c[Pro-Arg-Phe-Nal(2′)-Asn-Ala-Phe-DPro]]
no activity at the mMC3R up to (concentration) (mMC3R): > 100 µM

C[C@@H]1NC(=O)CNC(=O)[C@H](Cc2ccccc2)NC(=O)[C@H](Cc2ccccc2)NC(=O)[C@H](CCCNC(=N)N)NC(=O)[C@@H]2CCCN2C(=O)[C@H]2CCCN2C(=O)[C@H](Cc2ccccc2)NC1=O [Peptide 21, c[Pro-Arg-Phe-Phe-Gly-Ala-Phe-DPro]]
fold increased antagonist potency at the mMC3R compared to 6 (mMC3R; compared to 6): 16 fold
fold increased antagonist potency at the mMC4R compared to 6 (mMC4R [1]): 5 fold

C[C@@H]1NC(=O)[C@H](CCCCN)NC(=O)[C@H](Cc2ccccc2)NC(=O)[C@H](Cc2ccccc2)NC(=O)[C@H](CCCNC(=N)N)NC(=O)[C@@H]2CCCN2C(=O)[C@H]2CCCN2C(=O)[C@H](Cc2ccccc2)NC1=O [Peptide 25, c[Pro-Arg-Phe-Phe-Lys-Ala-Phe-DPro]]
fold increased antagonist potency at the mMC4R compared to 6 (mMC4R [1]): 4 fold

C[C@@H]1NC(=O)[C@H](CCCNC(=N)N)NC(=O)[C@H](Cc2ccccc2)NC(=O)[C@H](Cc2ccccc2)NC(=O)[C@H](CCCNC(=N)N)NC(=O)[C@@H]2CCCN2C(=O)[C@H]2CCCN2C(=O)[C@H](Cc2ccccc2)NC1=O [Peptide 26, c[Pro-Arg-Phe-Phe-Arg-Ala-Phe-DPro]] (cyclo(RFFRAF[dP]P))
fold increased antagonist potency at the mMC4R compared to 6 (mMC4R [1]): 5 fold

YCRFFNAFCY (disulfide 2-9) [hAGRP (109-118)]
mMC4R antagonist pA2 (mMC4R [2]): 6.8
mMC4R antagonist pA2 (mMC4R [2]; previously reported values): 6.8±0.2

hAGRP(109-118)
Ki (mMC4R (Mus musculus)): 160 nM
